Data as given in PubChem BioAssay AID328 (DTP/NCI, 2004).
Values joined by “and” are separate entries in the source; they are usually repeats but may differ in a detail not shown here. Equal values may be shown once. Inconclusive results and toxic doses are left out.

System: BDF1 mice, P388 leukemia ip, median survival T/C
Assay: NCI In Vivo Anticancer Drug Screen. Data for tumor model P388 Leukemia (intraperitoneal) in B6D2F1 (BDF1) mice
Details: endpoint: median survival time, higher = longer survival
Protocol: The antitumor activity of compounds was measured in mice bearing transplantable tumors. Survival or tumor size were measured and the results are expressed as the measurement made in the treated group (T) divided by the measurement made in the vehicle treated control group (C). The tumor model used in this assay is P388 Leukemia (intraperitoneal) in B6D2F1 (BDF1) mice

[1] = dose: 100.0 mg/kg/injection, schedule: Q01DX009 (ip), vehicle: saline with Tween-80
[2] = dose: 100.0 mg/kg/injection, schedule: Q01DX009 (ip), vehicle: saline
[3] = dose: 100.0 mg/kg/injection, schedule: Q04DX003 (ip), vehicle: saline
[4] = dose: 200.0 mg/kg/injection, schedule: Q01DX009 (ip), vehicle: saline with Tween-80
[5] = dose: 200.0 mg/kg/injection, schedule: Q01DX009 (ip), vehicle: saline
[6] = dose: 200.0 mg/kg/injection, schedule: Q04DX003 (ip), vehicle: saline
[7] = dose: 400.0 mg/kg/injection, schedule: Q01DX009 (ip), vehicle: saline with Tween-80
[8] = dose: 400.0 mg/kg/injection, schedule: Q01DX009 (ip), vehicle: saline
[9] = dose: 400.0 mg/kg/injection, schedule: Q04DX003 (ip), vehicle: saline
[10] = dose: 50.0 mg/kg/injection, schedule: Q01DX009 (ip), vehicle: saline with Tween-80
[11] = dose: 100.0 mg/kg/injection, schedule: Q04DX003 (ip), vehicle: saline with Tween-80
[12] = dose: 50.0 mg/kg/injection, schedule: Q04DX003 (ip), vehicle: saline
[13] = dose: 25.0 mg/kg/injection, schedule: Q01DX009 (ip), vehicle: saline with Tween-80
[14] = dose: 50.0 mg/kg/injection, schedule: Q04DX003 (ip), vehicle: saline with Tween-80
[15] = dose: 200.0 mg/kg/injection, schedule: Q04DX003 (ip), vehicle: saline with Tween-80

## O=C1NC(=O)C(=O)N1
dose: 100.0 mg/kg/injection, schedule: Q01DX001 (ip), vehicle: saline
  T/C: 109 % of control
[1]
  T/C: 100 % of control
[2]
  T/C: 100 % of control
[3]
  T/C: 110 % of control
dose: 200.0 mg/kg/injection, schedule: Q01DX001 (ip), vehicle: saline
  T/C: 100 % of control
[4]
  T/C: 104 % of control
[5]
  T/C: 100 % of control
[6]
  T/C: 95 % of control
dose: 400.0 mg/kg/injection, schedule: Q01DX001 (ip), vehicle: saline
  T/C: 100 % of control
[7]
  T/C: 95 % of control
[8]
  T/C: 100 % of control
[9]
  T/C: 120 % of control

## CCN(CCP(c1ccccc1)c1ccccc1)CCP(c1ccccc1)c1ccccc1
[10]
  T/C: 86 % of control
dose: 66.0 mg/kg/injection, schedule: Q04DX003 (ip), vehicle: saline with Tween-80
  T/C: 150 % of control
[11]
  T/C: 159 % of control

## N=c1cc(-c2ccc(Cl)cc2)ss1
dose: 50.0 mg/kg/injection, schedule: Q01DX009 (ip), vehicle: saline
  T/C: 117 % of control
[12]
  T/C: 97 % of control
[3]
  T/C: 105 % of control
[6]
  T/C: 108 % of control

## O=C(Nc1cc(Cl)ccc1C(=O)O)c1cccc(C[n+]2ccccc2)c1
dose: 50.0 mg/kg/injection, schedule: Q01DX005 (ip), vehicle: saline with Tween-80
  T/C: 111 % of control
dose: 100.0 mg/kg/injection, schedule: Q01DX005 (ip), vehicle: saline with Tween-80
  T/C: 111 % of control

## CC(=O)Nc1ccc(S(=O)(=O)NC(N)=O)cc1
[1]
  T/C: 105 % of control
[7]
  T/C: 98 % of control

## CC[N+](CC)(CC)CCCCCCCC[N+](CC)(CC)CC
dose: 0.25 mg/kg/injection, schedule: Q01DX009 (ip), vehicle: water
  T/C: 115 % of control
dose: 0.5 mg/kg/injection, schedule: Q01DX009 (ip), vehicle: water
  T/C: 92 % of control
dose: 0.5 mg/kg/injection, schedule: Q04DX003 (ip), vehicle: water
  T/C: 100 % of control
dose: 0.78 mg/kg/injection, schedule: Q04DX003 (ip), vehicle: water
  T/C: 112 % of control
dose: 1.0 mg/kg/injection, schedule: Q01DX009 (ip), vehicle: water
  T/C: 105 % of control and 106 % of control
dose: 1.0 mg/kg/injection, schedule: Q04DX003 (ip), vehicle: water
  T/C: 88 % of control
dose: 1.56 mg/kg/injection, schedule: Q04DX003 (ip), vehicle: water
  T/C: 112 % of control
dose: 2.0 mg/kg/injection, schedule: Q01DX009 (ip), vehicle: water
  T/C: 106 % of control
dose: 3.12 mg/kg/injection, schedule: Q04DX003 (ip), vehicle: water
  T/C: 112 % of control

## CN(C)CCOc1cccc(OCCN(C)C)n1
[13]
  T/C: 100 % of control
dose: 25.0 mg/kg/injection, schedule: Q04DX003 (ip), vehicle: saline with Tween-80
  T/C: 87 % of control
[10]
  T/C: 95 % of control
[14]
  T/C: 91 % of control

## OC1(C2(O)CCCC2)CCCC1
[1]
  T/C: 109 % of control
[4]
  T/C: 95 % of control
[7]
  T/C: 100 % of control

## Cc1sc(C)c2c1C[Se]Cc1c(C)sc(C)c1C[Se]C2
dose: 12.5 mg/kg/injection, schedule: Q01DX001 (ip), vehicle: saline with Tween-80
  T/C: 95 % of control
dose: 25.0 mg/kg/injection, schedule: Q01DX001 (ip), vehicle: saline with Tween-80
  T/C: 107 % of control
dose: 50.0 mg/kg/injection, schedule: Q01DX001 (ip), vehicle: saline with Tween-80
  T/C: 118 % of control

## Nc1cc(C(=O)Nc2ccc(CCNC3=NCCN3)cc2)ccc1C(=O)Nc1ccc(CCNC2=NCCN2)cc1
dose: 2.6 mg/kg/injection, schedule: Q01DX009 (ip), vehicle: saline with Tween-80
  T/C: 123 % of control
dose: 5.0 mg/kg/injection, schedule: Q04DX003 (ip), vehicle: saline with Tween-80
  T/C: 109 % of control and 113 % of control
dose: 6.0 mg/kg/injection, schedule: Q01DX009 (ip), vehicle: saline with Tween-80
  T/C: 157 % of control
dose: 6.7 mg/kg/injection, schedule: Q01DX009 (ip), vehicle: saline with Tween-80
  T/C: 157 % of control
dose: 8.0 mg/kg/injection, schedule: Q04DX003 (ip), vehicle: saline with Tween-80
  T/C: 118 % of control
dose: 10.0 mg/kg/injection, schedule: Q01DX009 (ip), vehicle: saline with Tween-80
  T/C: 192 % of control and 215 % of control
dose: 10.0 mg/kg/injection, schedule: Q04DX003 (ip), vehicle: saline with Tween-80
  T/C: 109 % of control
dose: 12.0 mg/kg/injection, schedule: Q04DX003 (ip), vehicle: saline with Tween-80
  T/C: 118 % of control
dose: 15.0 mg/kg/injection, schedule: Q01DX009 (ip), vehicle: saline with Tween-80
  T/C: 230 % of control
dose: 18.0 mg/kg/injection, schedule: Q04DX003 (ip), vehicle: saline with Tween-80
  T/C: 150 % of control and 163 % of control
dose: 20.0 mg/kg/injection, schedule: Q01DX009 (ip), vehicle: saline with Tween-80
  T/C: 230 % of control
dose: 20.0 mg/kg/injection, schedule: Q04DX003 (ip), vehicle: saline with Tween-80
  T/C: 163 % of control
dose: 26.0 mg/kg/injection, schedule: Q04DX003 (ip), vehicle: saline with Tween-80
  T/C: 150 % of control and 177 % of control
dose: 40.0 mg/kg/injection, schedule: Q04DX003 (ip), vehicle: saline with Tween-80
  T/C: 250 % of control and 200 % of control
dose: 60.0 mg/kg/injection, schedule: Q04DX003 (ip), vehicle: saline with Tween-80
  T/C: 162 % of control

## C/C=C/CCCCCCCC
dose: 100.0 mg/kg/injection, schedule: Q01DX001 (ip), vehicle: saline with Tween-80
  T/C: 104 % of control
dose: 200.0 mg/kg/injection, schedule: Q01DX001 (ip), vehicle: saline with Tween-80
  T/C: 104 % of control
dose: 400.0 mg/kg/injection, schedule: Q01DX001 (ip), vehicle: saline with Tween-80
  T/C: 119 % of control

## C/C(CCC(=O)O)=N/O
[2]
  T/C: 110 % of control
[3]
  T/C: 104 % of control
[5]
  T/C: 120 % of control
[6]
  T/C: 108 % of control
[9]
  T/C: 116 % of control

## COc1cc2c(cc1OC)-c1cc3cc(OC)c(OC)cc3c(CCC(=O)O)[n+]1CC2 (tested in a mixture with another compound)
[2]
  T/C: 106 % of control
[5]
  T/C: 92 % of control
[8]
  T/C: 90 % of control

## CC1CN(c2ccc([N+](=O)[O-])cc2)C(C)CN1 (stereo not drawn)
dose: 25.0 mg/kg/injection, schedule: Q04DX003 (ip), vehicle: saline
  T/C: 100 % of control
[12]
  T/C: 110 % of control
[3]
  T/C: 90 % of control

## O=C(O)CCC1(c2ccccc2)CCCC1
dose: 25.0 mg/kg/injection, schedule: Q01DX009 (ip), vehicle: water
  T/C: 91 % of control
dose: 50.0 mg/kg/injection, schedule: Q01DX009 (ip), vehicle: water
  T/C: 88 % of control
dose: 100.0 mg/kg/injection, schedule: Q01DX009 (ip), vehicle: water
  T/C: 103 % of control
dose: 200.0 mg/kg/injection, schedule: Q01DX009 (ip), vehicle: water
  T/C: 97 % of control
dose: 300.0 mg/kg/injection, schedule: Q01DX009 (ip), vehicle: water
  T/C: 106 % of control

## CCNC(C)(C)C(SS(=O)(=O)O)c1ccc(Cl)s1 (stereo not drawn)
[13]
  T/C: 103 % of control
[10]
  T/C: 95 % of control and 121 % of control
dose: 75.0 mg/kg/injection, schedule: Q01DX009 (ip), vehicle: saline with Tween-80
  T/C: 103 % of control
[1]
  T/C: 102 % of control
[11]
  T/C: 95 % of control
[4]
  T/C: 102 % of control
[15]
  T/C: 94 % of control
dose: 300.0 mg/kg/injection, schedule: Q01DX009 (ip), vehicle: saline with Tween-80
  T/C: 101 % of control

## NC(=S)N/N=C/c1ccc(-c2ccccc2)cc1
dose: 12.5 mg/kg/injection, schedule: Q01DX009 (ip), vehicle: saline with Tween-80
  T/C: 90 % of control
[13]
  T/C: 109 % of control
[10]
  T/C: 86 % of control

## O=C1NC(=O)C2(CCCCCC2)N1
[10]
  T/C: 100 % of control
[14]
  T/C: 112 % of control
[1]
  T/C: 112 % of control
dose: 100.0 mg/kg/injection, schedule: Q04DX003 (ip), vehicle: saline sonified
  T/C: 95 % of control
[11]
  T/C: 104 % of control
[4]
  T/C: 108 % of control
dose: 200.0 mg/kg/injection, schedule: Q04DX003 (ip), vehicle: saline sonified
  T/C: 95 % of control
[15]
  T/C: 100 % of control
dose: 400.0 mg/kg/injection, schedule: Q04DX003 (ip), vehicle: saline sonified
  T/C: 104 % of control

## CC(=O)O.CC(=O)O.[NH-]C(CCC(N)=O)C(=O)O.[NH-]C(CCC(N)=O)C(=O)O.[Ni+2] (stereo not drawn)
dose: 12.5 mg/kg/injection, schedule: Q01DX009 (ip), vehicle: saline
  T/C: 104 % of control
dose: 25.0 mg/kg/injection, schedule: Q01DX009 (ip), vehicle: saline
  T/C: 93 % of control
